Results from article PMC6409085, “Three odorant-binding proteins are involved in the behavioral response of Sogatella furcifera to rice plant volatiles” (PeerJ, 2019).
Several values for one entry are separate records, joined by “and”; a condition that tells them apart may be missing. Identical values can stand only once.

Assays:
Test in all cases: biochemical
Type in all cases: binding
SfurOBP2 = SfurOBP2 (Sogatella furcifera, UniProt V5T759)
Procedure: (§1) Thirty-six rice odorants ([He et al., 2014]; [Wang et al., 2017]) and 1-N-phenyl-naphthylamine (1-NPN) were purchased from Sigma-Aldrich (St Louis, MO, USA). These odorants and 1-NPN were dissolved in high-performance liquid chromatography (HPLC) purify grade methanol for 1.0 mM as work solution.
(§2) Fluorescence competitive binding assays were performed on Tecan Spark 10M (Tecan Group Ltd., Männedorf, Switzerland) with the F96 Black ELIAS Plate (Sangon) ([Khuhro et al., 2017]; [Liu et al., 2017]). The solutions were excited at 337 nm and emission spectra were recorded between 390 and 490 nm. First, to test the binding constants of 1-NPN to the SfurOBPs, a 2.0 µM solution of protein in 50 mM Tris-HCl (pH = 7.4) was titrated with 1 mM 1-NPN to achieve virous concentrations. Next, the competitive binding of each odorant was measured using the 1-NPN as fluorescent reporter and odorant as competitor. The concentrations of protein and 1-NPN were both 2.0 µM, the odorant added after protein and 1-NPN added into the well of ELIAS Plate for 2 min. The final concentrations of each competitor were 2, 4, 6, 8, 10, 12, 14, 16, 18 and 20 µM. After 2 min of odorant added, the fluorescence intensity was measured and recorded. The volume of mixed solution in each well was maintained at 250 µL. Each interaction was performed in triplicates.
(§3) GraphPad Prism 7.0 software (GraphPad Software, Inc., La Jolla, CA, USA) was used to calculated and generated the binding constants (K1−NPN) of 1-NPN to SfurOBPs and relative Scatchard plots ([Ban et al., 2003]; [Li et al., 2016]). Dissociation constant (Ki) of each odorant to SfurOBP was computed from the corresponding IC50 value (the half maximal inhibitory concentration), using the following equation: Ki=[IC50]/(1 + [1-NPN]/K1−NPN), where [1-NPN] is the free concentration of 1-NPN and K1−NPN is the dissociation constant of the complex protein/1-NPN.

SfurOBP11 = SfurOBP11 (Sogatella furcifera, UniProt V5T6E3)
Chain of SfurOBP11 (V5T6E3 entry or part of it): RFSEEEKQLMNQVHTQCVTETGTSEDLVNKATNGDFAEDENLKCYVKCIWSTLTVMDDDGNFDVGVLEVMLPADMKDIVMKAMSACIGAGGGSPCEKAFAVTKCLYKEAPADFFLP
Procedure: as §1, §2, §3

SfurOBP1 = SfurOBP1 (Sogatella furcifera, UniProt V5T8N5); settings: OBP1, three replicate columns
Chain of SfurOBP1 (V5T8N5 entry or part of it): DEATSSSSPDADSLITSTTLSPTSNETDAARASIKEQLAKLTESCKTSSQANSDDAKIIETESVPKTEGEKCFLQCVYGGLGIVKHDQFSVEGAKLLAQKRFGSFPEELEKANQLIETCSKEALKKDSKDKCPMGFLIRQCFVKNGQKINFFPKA
Procedure: as §1, §2, §3

SfurOBP3 = SfurOBP3 (Sogatella furcifera, UniProt V5T818); settings: OBP3, three replicate columns
Chain of SfurOBP3 (V5T818 entry or part of it): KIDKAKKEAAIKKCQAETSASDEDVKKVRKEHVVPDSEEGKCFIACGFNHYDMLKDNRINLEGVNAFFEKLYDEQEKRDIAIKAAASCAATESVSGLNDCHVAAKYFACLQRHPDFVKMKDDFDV
Procedure: as §1, §2, §3

Chain of SfurOBP2 (V5T759 entry or part of it): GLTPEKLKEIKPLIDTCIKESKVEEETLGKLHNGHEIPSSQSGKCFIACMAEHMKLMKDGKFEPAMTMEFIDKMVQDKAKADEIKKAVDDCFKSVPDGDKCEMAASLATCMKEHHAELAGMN

## CC(C)COC(=O)CCCCC(=O)OCC(C)C [DA(diisobutyl adipate)]
SfurOBP2; ligand concentration 2 (unit not given), replicate column 1 of 3
  Fluorescence competitive binding assay, OBP2 (raw fluorescence reading): 18255
SfurOBP2; ligand concentration 2 (unit not given), replicate column 2 of 3
  Fluorescence competitive binding assay, OBP2 (raw fluorescence reading): 18056
SfurOBP2; ligand concentration 2 (unit not given), replicate column 3 of 3
  Fluorescence competitive binding assay, OBP2 (raw fluorescence reading): 17857
SfurOBP2; ligand concentration 4 (unit not given), replicate column 1 of 3
  Fluorescence competitive binding assay, OBP2 (raw fluorescence reading): 17231
SfurOBP2; ligand concentration 4 (unit not given), replicate column 2 of 3
  Fluorescence competitive binding assay, OBP2 (raw fluorescence reading): 17998
SfurOBP2; ligand concentration 4 (unit not given), replicate column 3 of 3
  Fluorescence competitive binding assay, OBP2 (raw fluorescence reading): 18274
SfurOBP2; ligand concentration 6 (unit not given), replicate column 1 of 3
  Fluorescence competitive binding assay, OBP2 (raw fluorescence reading): 16096
SfurOBP2; ligand concentration 6 (unit not given), replicate column 2 of 3
  Fluorescence competitive binding assay, OBP2 (raw fluorescence reading): 17472
SfurOBP2; ligand concentration 6 (unit not given), replicate column 3 of 3
  Fluorescence competitive binding assay, OBP2 (raw fluorescence reading): 18707
SfurOBP2; ligand concentration 8 (unit not given), replicate column 1 of 3
  Fluorescence competitive binding assay, OBP2 (raw fluorescence reading): 16149
SfurOBP2; ligand concentration 8 (unit not given), replicate column 2 of 3
  Fluorescence competitive binding assay, OBP2 (raw fluorescence reading): 16678
SfurOBP2; ligand concentration 8 (unit not given), replicate column 3 of 3
  Fluorescence competitive binding assay, OBP2 (raw fluorescence reading): 16908
SfurOBP2; ligand concentration 10 (unit not given), replicate column 1 of 3
  Fluorescence competitive binding assay, OBP2 (raw fluorescence reading): 15320
SfurOBP2; ligand concentration 10 (unit not given), replicate column 2 of 3
  Fluorescence competitive binding assay, OBP2 (raw fluorescence reading): 15081
SfurOBP2; ligand concentration 10 (unit not given), replicate column 3 of 3
  Fluorescence competitive binding assay, OBP2 (raw fluorescence reading): 16366
SfurOBP2; ligand concentration 12 (unit not given), replicate column 1 of 3
  Fluorescence competitive binding assay, OBP2 (raw fluorescence reading): 14706
SfurOBP2; ligand concentration 12 (unit not given), replicate column 2 of 3
  Fluorescence competitive binding assay, OBP2 (raw fluorescence reading): 15645
SfurOBP2; ligand concentration 12 (unit not given), replicate column 3 of 3
  Fluorescence competitive binding assay, OBP2 (raw fluorescence reading): 15214
SfurOBP2; ligand concentration 14 (unit not given), replicate column 1 of 3
  Fluorescence competitive binding assay, OBP2 (raw fluorescence reading): 14108
SfurOBP2; ligand concentration 14 (unit not given), replicate column 2 of 3
  Fluorescence competitive binding assay, OBP2 (raw fluorescence reading): 14696
SfurOBP2; ligand concentration 14 (unit not given), replicate column 3 of 3
  Fluorescence competitive binding assay, OBP2 (raw fluorescence reading): 15283
SfurOBP2; ligand concentration 16 (unit not given), replicate column 1 of 3
  Fluorescence competitive binding assay, OBP2 (raw fluorescence reading): 14285
SfurOBP2; ligand concentration 16 (unit not given), replicate column 2 of 3
  Fluorescence competitive binding assay, OBP2 (raw fluorescence reading): 14484
SfurOBP2; ligand concentration 16 (unit not given), replicate column 3 of 3
  Fluorescence competitive binding assay, OBP2 (raw fluorescence reading): 14085
SfurOBP2; ligand concentration 18 (unit not given), replicate column 1 of 3
  Fluorescence competitive binding assay, OBP2 (raw fluorescence reading): 14063
SfurOBP2; ligand concentration 18 (unit not given), replicate column 2 of 3
  Fluorescence competitive binding assay, OBP2 (raw fluorescence reading): 14665
SfurOBP2; ligand concentration 18 (unit not given), replicate column 3 of 3
  Fluorescence competitive binding assay, OBP2 (raw fluorescence reading): 14360
SfurOBP2; ligand concentration 20 (unit not given), replicate column 1 of 3
  Fluorescence competitive binding assay, OBP2 (raw fluorescence reading): 13793
SfurOBP2; ligand concentration 20 (unit not given), replicate column 2 of 3
  Fluorescence competitive binding assay, OBP2 (raw fluorescence reading): 14314
SfurOBP2; ligand concentration 20 (unit not given), replicate column 3 of 3
  Fluorescence competitive binding assay, OBP2 (raw fluorescence reading): 13272
SfurOBP11; ligand concentration 2, replicate 1
  Fluorescence intensity, fluorescence competitive binding assay, OBP11: 28052
SfurOBP11; ligand concentration 2, replicate 2
  Fluorescence intensity, fluorescence competitive binding assay, OBP11: 24884
SfurOBP11; ligand concentration 2, replicate 3
  Fluorescence intensity, fluorescence competitive binding assay, OBP11: 25998
SfurOBP11; ligand concentration 4, replicate 1
  Fluorescence intensity, fluorescence competitive binding assay, OBP11: 25234
SfurOBP11; ligand concentration 4, replicate 2
  Fluorescence intensity, fluorescence competitive binding assay, OBP11: 27203
SfurOBP11; ligand concentration 4, replicate 3
  Fluorescence intensity, fluorescence competitive binding assay, OBP11: 25942
SfurOBP11; ligand concentration 6, replicate 1
  Fluorescence intensity, fluorescence competitive binding assay, OBP11: 26005
SfurOBP11; ligand concentration 6, replicate 2
  Fluorescence intensity, fluorescence competitive binding assay, OBP11: 24895
SfurOBP11; ligand concentration 6, replicate 3
  Fluorescence intensity, fluorescence competitive binding assay, OBP11: 23079
SfurOBP11; ligand concentration 8, replicate 1
  Fluorescence intensity, fluorescence competitive binding assay, OBP11: 23239
SfurOBP11; ligand concentration 8, replicate 2
  Fluorescence intensity, fluorescence competitive binding assay, OBP11: 23328
SfurOBP11; ligand concentration 8, replicate 3
  Fluorescence intensity, fluorescence competitive binding assay, OBP11: 24337
SfurOBP11; ligand concentration 10, replicate 1
  Fluorescence intensity, fluorescence competitive binding assay, OBP11: 23466
SfurOBP11; ligand concentration 10, replicate 2
  Fluorescence intensity, fluorescence competitive binding assay, OBP11: 24012
SfurOBP11; ligand concentration 10, replicate 3
  Fluorescence intensity, fluorescence competitive binding assay, OBP11: 22919
SfurOBP11; ligand concentration 12, replicate 1
  Fluorescence intensity, fluorescence competitive binding assay, OBP11: 20499
SfurOBP11; ligand concentration 12, replicate 2
  Fluorescence intensity, fluorescence competitive binding assay, OBP11: 21796
SfurOBP11; ligand concentration 12, replicate 3
  Fluorescence intensity, fluorescence competitive binding assay, OBP11: 19860
SfurOBP11; ligand concentration 14, replicate 1
  Fluorescence intensity, fluorescence competitive binding assay, OBP11: 20110
SfurOBP11; ligand concentration 14, replicate 2
  Fluorescence intensity, fluorescence competitive binding assay, OBP11: 20124
SfurOBP11; ligand concentration 14, replicate 3
  Fluorescence intensity, fluorescence competitive binding assay, OBP11: 20151
SfurOBP11; ligand concentration 16, replicate 1
  Fluorescence intensity, fluorescence competitive binding assay, OBP11: 18498
SfurOBP11; ligand concentration 16, replicate 2
  Fluorescence intensity, fluorescence competitive binding assay, OBP11: 20828
SfurOBP11; ligand concentration 16, replicate 3
  Fluorescence intensity, fluorescence competitive binding assay, OBP11: 20812
SfurOBP11; ligand concentration 18, replicate 1
  Fluorescence intensity, fluorescence competitive binding assay, OBP11: 20721
SfurOBP11; ligand concentration 18, replicate 2
  Fluorescence intensity, fluorescence competitive binding assay, OBP11: 21669
SfurOBP11; ligand concentration 18, replicate 3
  Fluorescence intensity, fluorescence competitive binding assay, OBP11: 21849
SfurOBP11; ligand concentration 20, replicate 1
  Fluorescence intensity, fluorescence competitive binding assay, OBP11: 20792
SfurOBP11; ligand concentration 20, replicate 2
  Fluorescence intensity, fluorescence competitive binding assay, OBP11: 21117
SfurOBP11; ligand concentration 20, replicate 3
  Fluorescence intensity, fluorescence competitive binding assay, OBP11: 20999
SfurOBP1; ligand concentration 2 (μM)
  Fluorescence competitive binding assay, fluorescence intensity: 6756 and 5373 and 6005
SfurOBP1; ligand concentration 4 (μM)
  Fluorescence competitive binding assay, fluorescence intensity: 6244 and 6492 and 6739
SfurOBP1; ligand concentration 6 (μM)
  Fluorescence competitive binding assay, fluorescence intensity: 6349 and 5828 and 6089
SfurOBP1; ligand concentration 8 (μM)
  Fluorescence competitive binding assay, fluorescence intensity: 6071 and 5880 and 6063
SfurOBP1; ligand concentration 10 (μM)
  Fluorescence competitive binding assay, fluorescence intensity: 6080 and 6185 and 6121
SfurOBP1; ligand concentration 12 (μM)
  Fluorescence competitive binding assay, fluorescence intensity: 5959 and 5941 and 5922
SfurOBP1; ligand concentration 14 (μM)
  Fluorescence competitive binding assay, fluorescence intensity: 6211 and 5589 and 5885
SfurOBP1; ligand concentration 16 (μM)
  Fluorescence competitive binding assay, fluorescence intensity: 6060 and 6168 and 5508
SfurOBP1; ligand concentration 18 (μM)
  Fluorescence competitive binding assay, fluorescence intensity: 6493 and 6572 and 6293
SfurOBP1; ligand concentration 20 (μM)
  Fluorescence competitive binding assay, fluorescence intensity: 7139 and 6435 and 6856
SfurOBP3; ligand concentration 2
  Fluorescence competitive binding assay, fluorescence intensity: 60413 and 65968 and 63200
SfurOBP3; ligand concentration 4
  Fluorescence competitive binding assay, fluorescence intensity: 61250 and 61185 and 61320
SfurOBP3; ligand concentration 6
  Fluorescence competitive binding assay, fluorescence intensity: 60246 and 58949 and 59593
SfurOBP3; ligand concentration 8
  Fluorescence competitive binding assay, fluorescence intensity: 52502 and 56703 and 49181
SfurOBP3; ligand concentration 10
  Fluorescence competitive binding assay, fluorescence intensity: 59611 and 55127 and 57362
SfurOBP3; ligand concentration 12
  Fluorescence competitive binding assay, fluorescence intensity: 47975 and 49504 and 49931
SfurOBP3; ligand concentration 14
  Fluorescence competitive binding assay, fluorescence intensity: 42590 and 46739 and 44665
SfurOBP3; ligand concentration 16
  Fluorescence competitive binding assay, fluorescence intensity: 36927 and 42551 and 39754
SfurOBP3; ligand concentration 18
  Fluorescence competitive binding assay, fluorescence intensity: 35693 and 43209 and 41553
SfurOBP3; ligand concentration 20
  Fluorescence competitive binding assay, fluorescence intensity: 42100 and 41400 and 42823
